{"source": "patent US20190008878A1", "about": "“COMPOSITIONS AND METHOD FOR REDUCING CARDIOTOXICITY” (SignPath Pharma Inc., priority 2017, published 2019)", "key": {"[1]": {"system": "HEK293 cells", "conditions": "20 μM, 24 h incubation; cited from earlier work"}, "[2]": {"experiment": "chronic sunitinib cardiotoxicity study, two 28-day cycles with or without the invention (ECG, echocardiography, arterial pressure, body weight, troponin)", "format": "in vivo, Hartley guinea pigs", "conditions": "for left ventricular / cardiac hypertrophy (cardiac weight): after 86 days (2 cycles) of treatment"}, "[3]": {"experiment": "Langendorff retrograde perfusion of hearts taken on Day 86 (left ventricle contractility and kinetics)", "parameters": "species or system Hartley guinea pigs", "conditions": "Day 86, ex vivo Langendorff", "description": "In FIG. 5B, on Day 86, the animals were euthanized and the hearts mounted onto a Langendorff retrograde perfusion system. A left ventricular pressure transducer was inserted into the left ventricle and recorded LV contraction amplitude and kinetics.\nIn FIG. 6, the pressure developed by the heart on Day 86 of treatment was measured ex-vivo in a Langendorff retrograde perfusion system."}}, "note": "“Also recorded” adds a separate entry of the source."}
{"smiles": "COc1cc(/C=C/C(=O)CC(=O)/C=C/c2ccc(O)c(OC)c2)ccc1O", "note": "[curcumin]", "values": [{"measurement": "HEK293 cell viability", "setting": "[1]", "result": "reduced"}]}
{"smiles": "CCN(CC)CCNC(=O)c1c(C)[nH]c(/C=C2\\C(=O)Nc3ccc(F)cc32)c1C", "note": "[sunitinib]", "values": [{"measurement": "mean arterial blood pressure", "setting": "[2]; Day 86, invasive femoral artery catheter, anesthetized animals, sunitinib alone compared with sunitinib plus the invention", "result": "Significantly higher"}, {"measurement": "left ventricular / cardiac hypertrophy (cardiac weight)", "setting": "[2]", "result": "onset of hypertrophy"}, {"measurement": "left ventricular / cardiac hypertrophy (cardiac weight)", "setting": "[2]; listed as Sunitinib", "result": "caused cardiac hypertrophy"}, {"measurement": "QTc prolongation", "setting": "[2]; as of Day 28, increasing steadily until Day 86, sunitinib 10 mg/kg/day, Bazett correction, n=6 per group", "result": "15 to 25", "unit": "ms"}, {"measurement": "Troponin I levels", "setting": "[2]; blood, sunitinib alone compared with sunitinib plus the invention", "result": "significantly higher"}, {"measurement": "LV ejection velocity at the aortic valve (AoVMax)", "setting": "[2]; cardiac echography, over the treatment", "result": "lower; also recorded: gradual decrease"}, {"measurement": "left ventricular distension (end of diastole and end of systole)", "setting": "[2]; echocardiography, over the treatment", "result": "left-ventricular distention"}, {"measurement": "left ventricular distension (end of diastole and end of systole)", "setting": "[2]; echocardiography, over the treatment, listed as Sunitinib", "result": "greater LV distension"}, {"measurement": "left-ventricular fractional shortening", "setting": "[2]; echocardiography, difference between groups significant after 86 days", "result": "lower; also recorded: time-dependent loss"}, {"measurement": "Troponin levels compared with intact animals", "setting": "[2]; intact animals 0.05 ng/mL (data not shown)", "result": "significantly greater"}, {"measurement": "end-systolic / developed left ventricular pressure", "setting": "[3]", "result": "significantly lower"}, {"measurement": "rate of contraction of the LV", "setting": "[3]; LV pressure transducer", "result": "lower"}]}
